Reference: PubChem BioAssay AID2060612 (Molecular Pharmacology Branch, DTP, NCI, 2025)

Test system: 565232-114-T-J1-PDC complex spheroid viability
Experiment: Anticancer human tumor 565232-114-T-J1-PDC patient-derived bladder carcinoma cell line growth inhibition [CLK]
Details: for IC50: curve of first compound; for viability, T/C: stronger effect = lower value
How it was run: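 Multi-cell-type spheroids combined patient-derived tumor cells with HUVEC endothelial cells and human mesenchymal stem cells. Paired agents were dosed in half-log steps down from about clinical Cmax, or from 10 microM where Cmax was unknown.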

[1] = second compound 0.0316 µM, first compound 0.00949 µM
[2] = second compound 0.0316 µM, first compound 0.03 µM
[3] = second compound 0.0316 µM, first compound 0.0949 µM
[4] = second compound 0.0316 µM, first compound 0.3 µM
[5] = second compound 0.1 µM, first compound 0.00949 µM
[6] = second compound 0.1 µM, first compound 0.03 µM
[7] = second compound 0.1 µM, first compound 0.0949 µM
[8] = second compound 0.1 µM, first compound 0.3 µM
[9] = second compound 0.316 µM, first compound 0.00949 µM
[10] = second compound 0.316 µM, first compound 0.03 µM
[11] = second compound 0.316 µM, first compound 0.0949 µM
[12] = second compound 0.316 µM, first compound 0.3 µM
[13] = second compound 1 µM, first compound 0.00949 µM
[14] = second compound 1 µM, first compound 0.03 µM
[15] = second compound 1 µM, first compound 0.0949 µM
[16] = second compound 1 µM, first compound 0.3 µM
[17] = second compound 3.16 µM, first compound 0.00949 µM
[18] = second compound 3.16 µM, first compound 0.03 µM
[19] = second compound 3.16 µM, first compound 0.0949 µM
[20] = second compound 3.16 µM, first compound 0.3 µM
[21] = second compound 10 µM, first compound 0.00949 µM
[22] = second compound 10 µM, first compound 0.03 µM
[23] = second compound 10 µM, first compound 0.0949 µM
[24] = second compound 10 µM, first compound 0.3 µM
[25] = second compound 0.0316 µM, first compound 0.0316 µM
[26] = second compound 0.0316 µM, first compound 0.1 µM
[27] = second compound 0.0316 µM, first compound 0.316 µM
[28] = second compound 0.0316 µM, first compound 1 µM
[29] = second compound 0.0316 µM, first compound 3.16 µM
[30] = second compound 0.0316 µM, first compound 10 µM
[31] = second compound 0.1 µM, first compound 0.0316 µM
[32] = second compound 0.1 µM, first compound 0.1 µM
[33] = second compound 0.1 µM, first compound 0.316 µM
[34] = second compound 0.1 µM, first compound 1 µM
[35] = second compound 0.1 µM, first compound 3.16 µM
[36] = second compound 0.1 µM, first compound 10 µM
[37] = second compound 0.316 µM, first compound 0.0316 µM
[38] = second compound 0.316 µM, first compound 0.1 µM
[39] = second compound 0.316 µM, first compound 0.316 µM
[40] = second compound 0.316 µM, first compound 1 µM
[41] = second compound 0.316 µM, first compound 3.16 µM
[42] = second compound 0.316 µM, first compound 10 µM
[43] = second compound 1 µM, first compound 0.0316 µM
[44] = second compound 1 µM, first compound 0.1 µM
[45] = second compound 1 µM, first compound 0.316 µM
[46] = second compound 1 µM, first compound 1 µM
[47] = second compound 1 µM, first compound 3.16 µM
[48] = second compound 1 µM, first compound 10 µM
[49] = second compound 3.16 µM, first compound 0.0316 µM
[50] = second compound 3.16 µM, first compound 0.1 µM
[51] = second compound 3.16 µM, first compound 0.316 µM
[52] = second compound 3.16 µM, first compound 1 µM
[53] = second compound 3.16 µM, first compound 3.16 µM
[54] = second compound 3.16 µM, first compound 10 µM
[55] = second compound 10 µM, first compound 0.0316 µM
[56] = second compound 10 µM, first compound 0.1 µM
[57] = second compound 10 µM, first compound 0.316 µM
[58] = second compound 10 µM, first compound 1 µM
[59] = second compound 10 µM, first compound 3.16 µM
[60] = second compound 10 µM, first compound 10 µM
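Further: spheroids exposed to compounds for 7 days before readout.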
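Wherever viability, T/C is given: 100% = DMSO vehicle wells with luminescence normalized to vehicle control.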

C=CC(=O)Nc1cc(Nc2nccc(-c3cn(C)c4ccccc34)n2)c(OC)cc1N(C)CCN(C)C + CNC(=O)c1ccc(Nc2nc(OC3CCCC3)c3c(-c4ccc5nc(C)oc5c4)c[nH]c3n2)c(OC)c1
IC50 (second compound 0.0316 µM): > 300 nM | IC50 (second compound 0.1 µM): 105 nM | IC50 (second compound 0.316 µM): < 0.949 nM | IC50 (second compound 1 µM): < 0.949 nM | IC50 (second compound 3.16 µM): < 0.949 nM | IC50 (second compound 10 µM): < 0.949 nM | viability, T/C (second compound 0.0316 µM, first compound 0.000949 µM): 84.3% | viability, T/C (second compound 0.0316 µM, first compound 0.003 µM): 92.5% | viability, T/C [1]: 75.5% | viability, T/C [2]: 86.7% | viability, T/C [3]: 87.6% | viability, T/C [4]: 86.1% | viability, T/C (second compound 0.1 µM, first compound 0.000949 µM): 49.8% | viability, T/C (second compound 0.1 µM, first compound 0.003 µM): 53.3% | viability, T/C [5]: 51.1% | viability, T/C [6]: 49.2% | viability, T/C [7]: 51.6% | viability, T/C [8]: 40.5% | viability, T/C (second compound 0.316 µM, first compound 0.000949 µM): 28.5% | viability, T/C (second compound 0.316 µM, first compound 0.003 µM): 31.7% | viability, T/C [9]: 28.5% | viability, T/C [10]: 31.1% | viability, T/C [11]: 35.7% | viability, T/C [12]: 26.2% | viability, T/C (second compound 1 µM, first compound 0.000949 µM): 22.4% | viability, T/C (second compound 1 µM, first compound 0.003 µM): 27.3% | viability, T/C [13]: 21.9% | viability, T/C [14]: 26.4% | viability, T/C [15]: 18.1% | viability, T/C [16]: 22% | viability, T/C (second compound 3.16 µM, first compound 0.000949 µM): 18.5% | viability, T/C (second compound 3.16 µM, first compound 0.003 µM): 20.7% | viability, T/C [17]: 17.6% | viability, T/C [18]: 21.4% | viability, T/C [19]: 15.2% | viability, T/C [20]: 14.3% | viability, T/C (second compound 10 µM, first compound 0.000949 µM): 19.9% | viability, T/C (second compound 10 µM, first compound 0.003 µM): 18.8% | viability, T/C [21]: 16.1% | viability, T/C [22]: 18.2% | viability, T/C [23]: 14% | viability, T/C [24]: 11.7%

CC1(C)CCC(CN2CCN(c3ccc(C(=O)NS(=O)(=O)c4ccc(NCC5CCOCC5)c([N+](=O)[O-])c4)c(Oc4cnc5[nH]ccc5c4)c3)CC2)=C(c2ccc(Cl)cc2)C1 + CNC(=O)c1ccc(Nc2nc(OC3CCCC3)c3c(-c4ccc5nc(C)oc5c4)c[nH]c3n2)c(OC)c1
IC50 (second compound 0.0316 µM): 8790 nM | IC50 (second compound 0.1 µM): 2340 nM | IC50 (second compound 0.316 µM): < 31.6 nM | IC50 (second compound 1 µM): < 31.6 nM | IC50 (second compound 3.16 µM): < 31.6 nM | IC50 (second compound 10 µM): < 31.6 nM | viability, T/C [25]: 82.7% | viability, T/C [26]: 93.9% | viability, T/C [27]: 95.7% | viability, T/C [28]: 95.2% | viability, T/C [29]: 92.7% | viability, T/C [30]: 44.7% | viability, T/C [31]: 60.2% | viability, T/C [32]: 55.1% | viability, T/C [33]: 52.6% | viability, T/C [34]: 53.6% | viability, T/C [35]: 49.4% | viability, T/C [36]: 30.5% | viability, T/C [37]: 37.3% | viability, T/C [38]: 38.1% | viability, T/C [39]: 39.3% | viability, T/C [40]: 33.5% | viability, T/C [41]: 32.7% | viability, T/C [42]: 23.7% | viability, T/C [43]: 21.2% | viability, T/C [44]: 23.3% | viability, T/C [45]: 25.4% | viability, T/C [46]: 26.6% | viability, T/C [47]: 28.7% | viability, T/C [48]: 20.6% | viability, T/C [49]: 22% | viability, T/C [50]: 20.8% | viability, T/C [51]: 23.6% | viability, T/C [52]: 20.8% | viability, T/C [53]: 20.8% | viability, T/C [54]: 17.1% | viability, T/C [55]: 21.5% | viability, T/C [56]: 19.9% | viability, T/C [57]: 18.5% | viability, T/C [58]: 21.1% | viability, T/C [59]: 20.1% | viability, T/C [60]: 16.5%

NC(=O)C(=Cn1cnc(-c2cc(C(F)(F)F)cc(C(F)(F)F)c2)n1)c1cncnc1 + CNC(=O)c1ccc(Nc2nc(OC3CCCC3)c3c(-c4ccc5nc(C)oc5c4)c[nH]c3n2)c(OC)c1
IC50 (second compound 0.0316 µM): 240 nM | IC50 (second compound 0.1 µM): < 9.49 nM | IC50 (second compound 0.316 µM): < 9.49 nM | IC50 (second compound 1 µM): < 9.49 nM | IC50 (second compound 3.16 µM): < 9.49 nM | IC50 (second compound 10 µM): < 9.49 nM | viability, T/C [1]: 105% | viability, T/C [2]: 103% | viability, T/C [3]: 124% | viability, T/C [4]: 35.5% | viability, T/C (second compound 0.0316 µM, first compound 0.949 µM): 1.65% | viability, T/C (second compound 0.0316 µM, first compound 3 µM): 0.39% | viability, T/C [5]: 44.5% | viability, T/C [6]: 42.2% | viability, T/C [7]: 28.9% | viability, T/C [8]: 10.7% | viability, T/C (second compound 0.1 µM, first compound 0.949 µM): 1% | viability, T/C (second compound 0.1 µM, first compound 3 µM): 0.65% | viability, T/C [9]: 29.7% | viability, T/C [10]: 29.7% | viability, T/C [11]: 27.1% | viability, T/C [12]: 8.97% | viability, T/C (second compound 0.316 µM, first compound 0.949 µM): 1.36% | viability, T/C (second compound 0.316 µM, first compound 3 µM): 1.61% | viability, T/C [13]: 21.2% | viability, T/C [14]: 24% | viability, T/C [15]: 19.4% | viability, T/C [16]: 5.67% | viability, T/C (second compound 1 µM, first compound 0.949 µM): 0.48% | viability, T/C (second compound 1 µM, first compound 3 µM): 1.21% | viability, T/C [17]: 16.4% | viability, T/C [18]: 17.2% | viability, T/C [19]: 13.8% | viability, T/C [20]: 4.75% | viability, T/C (second compound 3.16 µM, first compound 0.949 µM): 1.02% | viability, T/C (second compound 3.16 µM, first compound 3 µM): 0.26% | viability, T/C [21]: 16.3% | viability, T/C [22]: 16.8% | viability, T/C [23]: 11.7% | viability, T/C [24]: 4.97% | viability, T/C (second compound 10 µM, first compound 0.949 µM): 0.49% | viability, T/C (second compound 10 µM, first compound 3 µM): 0.34%

Nc1ccccc1NC(=O)c1ccc(CNC(=O)OCc2cccnc2)cc1 + CNC(=O)c1ccc(Nc2nc(OC3CCCC3)c3c(-c4ccc5nc(C)oc5c4)c[nH]c3n2)c(OC)c1
IC50 (second compound 0.0316 µM): 2980 nM | IC50 (second compound 0.1 µM): 44.4 nM | IC50 (second compound 0.316 µM): < 31.6 nM | IC50 (second compound 1 µM): < 31.6 nM | IC50 (second compound 3.16 µM): < 31.6 nM | IC50 (second compound 10 µM): < 31.6 nM | viability, T/C [25]: 82% | viability, T/C [26]: 109% | viability, T/C [27]: 109% | viability, T/C [28]: 87.8% | viability, T/C [29]: 48.3% | viability, T/C [30]: 0.6% | viability, T/C [31]: 51% | viability, T/C [32]: 47.9% | viability, T/C [33]: 35% | viability, T/C [34]: 24.9% | viability, T/C [35]: 15.6% | viability, T/C [36]: 0.18% | viability, T/C [37]: 33.1% | viability, T/C [38]: 27.7% | viability, T/C [39]: 16.4% | viability, T/C [40]: 11.1% | viability, T/C [41]: 5.55% | viability, T/C [42]: 0.32% | viability, T/C [43]: 23.7% | viability, T/C [44]: 18.4% | viability, T/C [45]: 14.7% | viability, T/C [46]: 8.67% | viability, T/C [47]: 8.05% | viability, T/C [48]: 0.14% | viability, T/C [49]: 17.5% | viability, T/C [50]: 16.4% | viability, T/C [51]: 10.7% | viability, T/C [52]: 6.76% | viability, T/C [53]: 6.55% | viability, T/C [54]: 0.19% | viability, T/C [55]: 17.6% | viability, T/C [56]: 14.9% | viability, T/C [57]: 8.73% | viability, T/C [58]: 6.93% | viability, T/C [59]: 6.45% | viability, T/C [60]: 0.27%
